# Measured values taken from patent publication US20080194482A1, “Selective Apac2 Receptor Peptide Agonists” (priority 2005, published 2008).
# Numbered stars: 1 amine (or outer) side, 2 acyl side, 3 side chain; on linkers, the order of the positions; unused ones are H or OH. Square brackets hold non-standard residues; d marks the D form. Ends that are not written are not given here. Peptide text beside a SMILES is read from it. * marks the point of attachment. Tyr(OMe) = O-methyl-tyrosine, COc1ccc(C[C@H](N[*:1])C(=O)[*:2])cc1; Orn = NCCC[C@H](N)C(=O)O; Hexanoyl = CCCCCC(=O)*; Aib = CC(C)(N)C(=O)O
# T1: human PAC1 (Homo sapiens, UniProt P41586)
# T1 construct: expressed in transfected cells
# T1 sequence (P41586 21-468): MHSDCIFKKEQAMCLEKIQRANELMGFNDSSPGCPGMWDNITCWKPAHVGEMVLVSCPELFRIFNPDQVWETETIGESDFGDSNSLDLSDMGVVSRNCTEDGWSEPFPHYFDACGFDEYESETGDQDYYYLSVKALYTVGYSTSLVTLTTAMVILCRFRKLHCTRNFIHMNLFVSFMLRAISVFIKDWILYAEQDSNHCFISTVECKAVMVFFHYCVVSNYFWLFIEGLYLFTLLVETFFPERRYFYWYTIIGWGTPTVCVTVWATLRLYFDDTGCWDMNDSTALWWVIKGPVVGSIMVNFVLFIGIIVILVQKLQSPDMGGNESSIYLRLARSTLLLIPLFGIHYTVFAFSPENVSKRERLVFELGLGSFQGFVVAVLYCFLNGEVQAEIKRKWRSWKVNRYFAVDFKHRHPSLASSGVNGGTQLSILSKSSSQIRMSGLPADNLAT
# T2: human VPAC2 receptor (human, UniProt P41587 24-438)
# T2 sequence (looked up): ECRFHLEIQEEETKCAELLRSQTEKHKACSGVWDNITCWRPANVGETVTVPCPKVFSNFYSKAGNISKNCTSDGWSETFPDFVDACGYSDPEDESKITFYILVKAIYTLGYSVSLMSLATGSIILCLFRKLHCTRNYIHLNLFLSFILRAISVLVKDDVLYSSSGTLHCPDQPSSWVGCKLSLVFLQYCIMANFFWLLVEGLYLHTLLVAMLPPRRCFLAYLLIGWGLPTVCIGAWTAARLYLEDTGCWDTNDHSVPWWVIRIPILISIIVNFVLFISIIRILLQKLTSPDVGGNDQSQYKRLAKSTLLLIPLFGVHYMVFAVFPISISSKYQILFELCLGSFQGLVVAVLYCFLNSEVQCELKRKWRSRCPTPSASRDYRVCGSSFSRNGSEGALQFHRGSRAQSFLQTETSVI
# T3: rat VPAC2 receptor (rat, UniProt P35000 23-437)
# T3 sequence (looked up): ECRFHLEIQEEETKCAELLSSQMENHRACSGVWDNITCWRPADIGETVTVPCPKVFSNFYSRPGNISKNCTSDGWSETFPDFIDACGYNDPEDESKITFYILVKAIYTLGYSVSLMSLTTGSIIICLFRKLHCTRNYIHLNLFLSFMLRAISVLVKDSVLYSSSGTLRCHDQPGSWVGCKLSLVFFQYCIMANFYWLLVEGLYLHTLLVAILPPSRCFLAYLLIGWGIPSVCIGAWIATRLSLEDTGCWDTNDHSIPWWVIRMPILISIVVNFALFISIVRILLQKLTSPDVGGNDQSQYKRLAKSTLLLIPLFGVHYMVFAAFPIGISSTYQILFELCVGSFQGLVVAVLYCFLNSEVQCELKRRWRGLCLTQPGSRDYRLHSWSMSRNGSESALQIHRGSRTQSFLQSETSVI
# Biological target: T1, human PAC1
# Experiment: Filter binding assay, 125I-labeled PACAP-27 tracer, PAC1 membranes
# Conditions: read-out: Human PAC1 Receptor Binding (IC50; nM)
row,Molecule,IC50
1,CCCCCC(=O)N[C@@H](Cc1c[nH]cn1)C(=O)N[C@@H](CO)C(=O)N[C@@H](CC(=O)O)C(=O)N[C@@H](C)C(=O)N[C@H](C(=O)N[C@@H](Cc1ccccc1)C(=O)N[C@H](C(=O)N[C@@H](CC(=O)O)C(=O)N[C@@H](CC(N)=O)C(=O)N[C@@H](Cc1ccc(O)cc1)C(=O)N[C@H](C(=O)N[C@@H](CCCN)C(=O)N[C@@H](CC(C)C)C(=O)N[C@@H](CCCNC(=N)N)C(=O)NC(C)(C)C(=O)N[C@@H](CCC(N)=O)C(=O)N[C@H](C(=O)N[C@@H](C)C(=O)N[C@@H](C)C(=O)NC(C)(C)C(=O)N[C@@H](CCCCN)C(=O)N[C@@H](CO)C(=O)N[C@@H](CC(C)C)C(=O)N[C@@H](CCC(N)=O)C(=O)N[C@@H](CO)C(=O)N[C@H](C(=O)N[C@@H](CCCN)C(=O)N[C@@H](CC(N)=O)C(=O)N[C@@H](CCCN)C(=O)NCC(=O)NCC(=O)N1CCC[C@H]1C(=O)N[C@@H](CO)C(=O)N[C@@H](CO)C(=O)NCC(=O)N[C@@H](C)C(=O)N1CCC[C@H]1C(=O)N1CCC[C@H]1C(=O)N1CCC[C@H]1C(=O)N[C@@H](CO)C(=O)O)[C@@H](C)CC)C(C)C)[C@@H](C)O)[C@@H](C)O)C(C)C [Agonist P385] (Hexanoyl-HSDAVFTDNYT[Orn]LR[Aib]QVAA[Aib]KSLQSI[Orn]N[Orn]GGPSSGAPPPS-OH; C-terminus assumed),> 25000 nM
2,CCCCCC(=O)N[C@@H](Cc1c[nH]cn1)C(=O)N[C@@H](CO)C(=O)N[C@@H](CC(=O)O)C(=O)N[C@@H](C)C(=O)N[C@H](C(=O)N[C@@H](Cc1ccccc1)C(=O)N[C@H](C(=O)N[C@@H](CC(=O)O)C(=O)N[C@@H](CC(N)=O)C(=O)N[C@@H](Cc1ccc(O)cc1)C(=O)N[C@H](C(=O)N[C@@H](CCCN)C(=O)N[C@@H](CC(C)C)C(=O)N[C@@H](CCCNC(=N)N)C(=O)NC(C)(C)C(=O)N[C@@H](CCC(N)=O)C(=O)N[C@@H](CO)C(=O)N[C@@H](C)C(=O)N[C@@H](C)C(=O)NC(C)(C)C(=O)N[C@@H](CCCCN)C(=O)N[C@@H](Cc1ccc(O)cc1)C(=O)N[C@@H](CC(C)C)C(=O)N[C@@H](CCC(N)=O)C(=O)N[C@@H](CO)C(=O)N[C@H](C(=O)N[C@@H](CCCN)C(=O)N[C@@H](CC(N)=O)C(=O)N[C@@H](CCCN)C(=O)NCC(=O)NCC(=O)N1CCC[C@H]1C(=O)N[C@@H](CO)C(=O)N[C@@H](CO)C(=O)NCC(=O)N[C@@H](C)C(=O)N1CCC[C@H]1C(=O)N1CCC[C@H]1C(=O)N1CCC[C@H]1C(=O)N[C@@H](CO)C(=O)O)[C@@H](C)CC)[C@@H](C)O)[C@@H](C)O)C(C)C [Agonist P389] (Hexanoyl-HSDAVFTDNYT[Orn]LR[Aib]QSAA[Aib]KYLQSI[Orn]N[Orn]GGPSSGAPPPS-OH; C-terminus assumed),> 25000 nM
3,CCCCCC(=O)N[C@@H](Cc1c[nH]cn1)C(=O)N[C@@H](CO)C(=O)N[C@@H](CC(=O)O)C(=O)N[C@@H](C)C(=O)N[C@H](C(=O)N[C@@H](Cc1ccccc1)C(=O)N[C@H](C(=O)N[C@@H](CC(=O)O)C(=O)N[C@@H](CO)C(=O)N[C@@H](Cc1ccc(O)cc1)C(=O)N[C@H](C(=O)N[C@@H](CCCN)C(=O)N[C@@H](CC(C)C)C(=O)N[C@@H](CCCNC(=N)N)C(=O)NC(C)(C)C(=O)N[C@@H](CCC(N)=O)C(=O)N[C@H](C(=O)N[C@@H](C)C(=O)N[C@@H](C)C(=O)NC(C)(C)C(=O)N[C@@H](CCCCN)C(=O)N[C@@H](Cc1ccc(O)cc1)C(=O)N[C@@H](CC(C)C)C(=O)N[C@@H](CCC(N)=O)C(=O)N[C@@H](CO)C(=O)N[C@H](C(=O)N[C@@H](CCCN)C(=O)N[C@@H](CC(N)=O)C(=O)N[C@@H](CCCN)C(=O)NCC(=O)NCC(=O)N1CCC[C@H]1C(=O)N[C@@H](CO)C(=O)N[C@@H](CO)C(=O)NCC(=O)N[C@@H](C)C(=O)N1CCC[C@H]1C(=O)N1CCC[C@H]1C(=O)N1CCC[C@H]1C(=O)N[C@@H](CO)C(=O)O)[C@@H](C)CC)C(C)C)[C@@H](C)O)[C@@H](C)O)C(C)C [Agonist P392] (Hexanoyl-HSDAVFTDSYT[Orn]LR[Aib]QVAA[Aib]KYLQSI[Orn]N[Orn]GGPSSGAPPPS-OH; C-terminus assumed),> 25000 nM
4,CCCCCC(=O)N[C@@H](Cc1c[nH]cn1)C(=O)N[C@@H](CO)C(=O)N[C@@H](CCC(=O)O)C(=O)N[C@@H](C)C(=O)N[C@H](C(=O)N[C@@H](Cc1ccccc1)C(=O)N[C@H](C(=O)N[C@@H](CCC(=O)O)C(=O)N[C@@H](CCC(N)=O)C(=O)N[C@@H](Cc1ccc(OC)cc1)C(=O)N[C@H](C(=O)N[C@@H](CCCN)C(=O)N[C@@H](CC(C)C)C(=O)N[C@@H](CCCNC(=N)N)C(=O)NC(C)(C)C(=O)N[C@@H](CCC(N)=O)C(=O)N[C@@H](CC(C)C)C(=O)N[C@@H](C)C(=O)N[C@@H](C)C(=O)NC(C)(C)C(=O)N[C@@H](CCCN)C(=O)N[C@@H](Cc1ccc(O)cc1)C(=O)N[C@@H](CC(C)C)C(=O)N[C@@H](CCC(N)=O)C(=O)N[C@@H](CO)C(=O)N[C@H](C(=O)N[C@@H](CCCN)C(=O)N[C@@H](CCCN)C(=O)NCC(=O)NCC(=O)N1CCC[C@H]1C(=O)N[C@@H](CO)C(=O)N[C@@H](CO)C(=O)NCC(=O)N[C@@H](C)C(=O)N1CCC[C@H]1C(=O)N1CCC[C@H]1C(=O)N1CCC[C@H]1C(=O)N[C@@H](CO)C(=O)O)[C@@H](C)CC)[C@@H](C)O)[C@@H](C)O)C(C)C [Agonist P393] (Hexanoyl-HSEAVFTEQY(Me)T[Orn]LR[Aib]QLAA[Aib][Orn]YLQSI[Orn][Orn]GGPSSGAPPPS-OH; C-terminus assumed),> 25000 nM

# Biological target: T2, human VPAC2 receptor
# Experiment: cell-based or functional assay
# Conditions: not given
row,Molecule,"Human VPAC2 Receptor: Alpha Screen (EC50; nM), cAMP generation"
1,Hexanoyl-HSDAVFTDQYTR[Aib]R[Aib]QLAA[Aib]KYLQSIK[Aib]KGGPSSGAPPPS [VPAC2 receptor peptide agonist P407],0.12 nM
2,Hexanoyl-HSEAVFTEQ[Tyr(OMe)]TR[Aib]R[Aib]QLAA[Aib]KYLQSIK[Aib]KGGPSSGAPPPS [VPAC2 receptor peptide agonist P409],0.19 nM

# Biological target: T3, rat VPAC2 receptor
# Experiment: cell-based or functional assay
# Conditions: not given
row,Molecule,"Rat VPAC2 Receptor: DiscoveRx (EC50; nM), cAMP generation"
1,Hexanoyl-HSDAVFTDQYTR[Aib]R[Aib]QLAA[Aib]KYLQSIK[Aib]KGGPSSGAPPPS [VPAC2 receptor peptide agonist P407],0.03 nM
